≈ marks a conversion by molar mass, not a printed value.
Assays:
Assay type in all cases: cell-based
B. fragilis 0558 = test: MIC, antibacterial spectrum (anaerobic bacteria); details: Bacteroides fragilis, 0558
[1] = system: Proteus vulgaris IFO 3167; test: MIC, antibacterial spectrum (aerobic bacteria); details: Proteus vulgaris, IFO3167
[2] = system: Citrobacter freundii IID 976; test: MIC, antibacterial spectrum (aerobic bacteria); details: Citrobacter freundii, IID976
K. pneumoniae 1-220S = test: MIC, antibacterial spectrum (aerobic bacteria); details: Klebsiella pneumoniae, 1220S
[3] = system: Veillonella parvula KYA 10790; test: MIC, antibacterial spectrum (anaerobic bacteria); details: KYA10790, Veillonella parvula KYA 10790, Gram -, 10^6 cells/ml
[4] = system: Acinetobacter anitratus IID 876; test: MIC, antibacterial spectrum (aerobic bacteria); details: Acinetobacter calcoaceticus, IID876
S. aureus Smith = test: MIC, antibacterial spectrum (aerobic bacteria); details: Staphylococcus aureus
[5] = system: Fusobacterium necrophorum S-45; test: MIC, antibacterial spectrum (anaerobic bacteria); details: Fusobacterium necrophorum, S45
E. coli ATCC 10536 = test: MIC, antibacterial spectrum (aerobic bacteria); details: Escherichia coli, ATCC10536
[6] = system: Serratia marcescens IID 618; test: MIC, antibacterial spectrum (aerobic bacteria); details: Serratia marcescens, IID618
[7] = system: Eubacterium lentum GAI 5242; test: MIC, antibacterial spectrum (anaerobic bacteria); details: Eggerthella lenta, GAI5242
C. perfringens KYA 13123 = test: microbe, parasite or virus in culture; details: Clostridium perfringens, KYA13123
P. cepacia GIFU 518 = test: MIC, antibacterial spectrum (aerobic bacteria); details: Burkholderia cepacia, GIFU518
[8] = system: Alcaligenes faecalis 0114002; test: MIC, antibacterial spectrum (aerobic bacteria); details: Alcaligenes faecalis 0114002, Gram -, 10^6 cells/ml
Pst. micros UPI 5464-1 = test: MIC, antibacterial spectrum (anaerobic bacteria); details: Parvimonas micra, UPI54641, Pst. micros UPI 5464-1, Gram +, 10^6 cells/ml
S. epidermidis IID 866 = test: MIC, antibacterial spectrum (aerobic bacteria); details: Staphylococcus epidermidis, IID866
Shigella sonnei IID 969 = test: MIC, antibacterial spectrum (aerobic bacteria); details: IID969, Shigella sonnei IID 969, Gram -, 10^6 cells/ml
Experimental: Minimal inhibitory concentrations (MICs) were determined in accordance with the method recommended by Japan Society of Chemotherapy.

S. marcescens GN 7577 = test: MIC, antibacterial spectrum (aerobic bacteria); details: Serratia marcescens, GN7577
[9] = system: Klebsiella pneumoniae KY(GN)6445; test: MIC, antibacterial spectrum (aerobic bacteria); details: Klebsiella pneumoniae
[10] = system: Propionibacterium acens 11828; test: MIC, antibacterial spectrum (anaerobic bacteria); details: Propionibacterium, 11828
B. fragilis 25285 = test: MIC, antibacterial spectrum (anaerobic bacteria); details: Bacteroides fragilis, 25285
P. mirabilis IID 994 = test: MIC, antibacterial spectrum (aerobic bacteria); details: Proteus mirabilis, IID994
[11] = system: B. thetaiotaomicron (0661); test: MIC, antibacterial spectrum (anaerobic bacteria); details: Bacteroides thetaiotaomicron
B. distasonis 8503 = test: MIC, antibacterial spectrum (anaerobic bacteria); details: Parabacteroides distasonis, 8503
[12] = system: Bacteroides fragilis GM 7000; test: MIC, antibacterial spectrum (anaerobic bacteria); details: Bacteroides fragilis, GM7000
[13] = system: Escherichia coli NIHJ JC-2; test: MIC, antibacterial spectrum (aerobic bacteria); details: NIHJJC2, Escherichia coli NIHJ JC-2, Gram -, 10^6 cells/ml
P. maltophilia GIFU 2491 = test: MIC, antibacterial spectrum (aerobic bacteria); details: Stenotrophomonas maltophilia, GIFU2491
[14] = system: Peptostreptococcus anaerobius KYA 27337; test: MIC, antibacterial spectrum (anaerobic bacteria); details: Peptostreptococcus anaerobius, KYA27337
E. coli ML 4707 = test: MIC, antibacterial spectrum (aerobic bacteria); details: Escherichia coli, ML4707
P. aeruginosa IID 1210 = test: MIC, antibacterial spectrum (aerobic bacteria); details: Pseudomonas aeruginosa, IID1210
[15] = system: S. pyogenes IID 689 (S-8); test: MIC, antibacterial spectrum (aerobic bacteria); details: Streptococcus pyogenes, IID689
E. faecalis IID 682 = test: MIC, antibacterial spectrum (aerobic bacteria); details: Enterococcus faecalis, IID682
[16] = system: Pseudomonas aeruginosa V-1; test: MIC, antibacterial spectrum (aerobic bacteria); details: Pseudomonas aeruginosa, V1
S. pyogenes IID 692 = test: MIC, antibacterial spectrum (aerobic bacteria); details: Streptococcus pyogenes, IID692
C. ramosum = test: MIC, antibacterial spectrum (anaerobic bacteria); details: Thomasclavelia ramosa
[17] = system: Yersinia enterocolitica IID 981; test: MIC, antibacterial spectrum (aerobic bacteria); details: Yersinia enterocolitica, IID981
[18] = system: S. aureus IID 670 (Terajima); test: MIC, antibacterial spectrum (aerobic bacteria); details: Staphylococcus aureus, IID670
[19] = system: Staphylococcus aureus 209 P; test: MIC, antibacterial spectrum (aerobic bacteria); details: Staphylococcus aureus, 209P
[20] = system: Streptococcus pneumoniae IID 552; test: MIC, antibacterial spectrum (aerobic bacteria); details: Streptococcus pneumoniae, IID552
P. aeruginosa IFO 12689 = test: MIC, antibacterial spectrum (aerobic bacteria); details: Pseudomonas aeruginosa, IFO12689
[21] = system: Salmonella enteritidis IID 604; test: MIC, antibacterial spectrum (aerobic bacteria); details: Salmonella enterica
[22] = system: Peptococcus magnus KY 017; test: MIC, antibacterial spectrum (anaerobic bacteria); details: Finegoldia magna, KY017
[23] = system: Bacillus subtilis PCI 219; test: MIC, antibacterial spectrum (aerobic bacteria); details: Bacillus subtilis, PCI219

O=C(O)c1cn(C2CC2)c2cc(N3CCNCC3)c(F)cc2c1=O [CPFX, Ciprofloxacin, reference compound]
MIC (B. fragilis 0558): 3.13 µg/mL (≈ 9.45 µM) | MIC [1]: 0.0125 µg/mL (≈ 0.0377 µM) | MIC [2]: 0.0125 µg/mL (≈ 0.0377 µM) | MIC (K. pneumoniae 1-220S): 0.05 µg/mL (≈ 0.151 µM) | MIC [3]: 0.2 µg/mL (≈ 0.604 µM) | MIC [4]: 0.1 µg/mL (≈ 0.302 µM) | MIC (S. aureus Smith): 0.39 µg/mL (≈ 1.18 µM) | MIC [5]: 1.56 µg/mL (≈ 4.71 µM) | MIC (E. coli ATCC 10536): 0.0125 µg/mL (≈ 0.0377 µM) | MIC [6]: 0.05 µg/mL (≈ 0.151 µM) | MIC [7]: 0.78 µg/mL (≈ 2.35 µM) | MIC (C. perfringens KYA 13123): 0.39 µg/mL (≈ 1.18 µM) | MIC (P. cepacia GIFU 518): 0.39 µg/mL (≈ 1.18 µM) | MIC [8]: 0.2 µg/mL (≈ 0.604 µM) | MIC (Pst. micros UPI 5464-1): 0.2 µg/mL (≈ 0.604 µM) | MIC (S. epidermidis IID 866): 0.2 µg/mL (≈ 0.604 µM) | MIC (Shigella sonnei IID 969): 0.0125 µg/mL (≈ 0.0377 µM) | MIC (S. marcescens GN 7577): 0.39 µg/mL (≈ 1.18 µM) | MIC [9]: 0.0125 µg/mL (≈ 0.0377 µM) | MIC [10]: 12.5 µg/mL (≈ 37.7 µM) | MIC (B. fragilis 25285): 6.25 µg/mL (≈ 18.9 µM) | MIC (P. mirabilis IID 994): 0.0125 µg/mL (≈ 0.0377 µM) | MIC [11]: 12.5 µg/mL (≈ 37.7 µM) | MIC (B. distasonis 8503): 6.25 µg/mL (≈ 18.9 µM) | MIC [12]: 6.25 µg/mL (≈ 18.9 µM) | MIC [13]: ≤ 0.0063 µg/mL | MIC (P. maltophilia GIFU 2491): 0.39 µg/mL (≈ 1.18 µM) | MIC [14]: 1.56 µg/mL (≈ 4.71 µM) | MIC (E. coli ML 4707): 0.0125 µg/mL (≈ 0.0377 µM) | MIC (P. aeruginosa IID 1210): 0.2 µg/mL (≈ 0.604 µM) | MIC [15]: 0.78 µg/mL (≈ 2.35 µM) | MIC (E. faecalis IID 682): 0.78 µg/mL (≈ 2.35 µM) | MIC [16]: 0.05 µg/mL (≈ 0.151 µM) | MIC (S. pyogenes IID 692): 0.78 µg/mL (≈ 2.35 µM) | MIC (C. ramosum): 12.5 µg/mL (≈ 37.7 µM) | MIC [17]: 0.05 µg/mL (≈ 0.151 µM) | MIC [18]: 0.2 µg/mL (≈ 0.604 µM) | MIC [19]: 0.2 µg/mL (≈ 0.604 µM) | MIC [20]: 0.78 µg/mL (≈ 2.35 µM) | MIC (P. aeruginosa IFO 12689): 0.2 µg/mL (≈ 0.604 µM) | MIC [21]: 0.0125 µg/mL (≈ 0.0377 µM) | MIC [22]: 0.39 µg/mL (≈ 1.18 µM) | MIC [23]: 0.05 µg/mL (≈ 0.151 µM)

Source: patent EP0221541A2, “Quinolonecarboxylic acid derivatives and their preparation” (KYORIN PHARMACEUTICAL CO., LTD., priority 1985, dated 1987)
